Test results published in article PMC8330636, “Design and enantioselective synthesis of 3-(α-acrylic acid) benzoxaboroles to combat carbapenemase resistance” (Chemical Communications (Cambridge, England), 2021).
pIC50: −log10 of the molar value. Like-named read-outs stand apart in the source and are kept apart here.

Columns and labels:
[1] = biological target: T1, OXA-48 (Klebsiella pneumoniae, UniProt Q6XEC0); experiment: inhibition of purified recombinant enzyme; type: biochemical; conditions: read-out: Class D OXA-48
T1 construct: purified recombinant; class D serine beta-lactamase; construct details only in ESI

[2] = biological target: T2, KPC-2 (Klebsiella pneumoniae, UniProt Q9F663); experiment: inhibition of purified recombinant enzyme; type: biochemical; conditions: read-out: Class A KPC-2
T2 construct: purified recombinant; class A serine beta-lactamase; construct details only in ESI

[3] = biological target: T3, Class B1 NDM-1 (Klebsiella pneumoniae, UniProt C7C422); experiment: biochemical; set-up: inhibition of purified recombinant beta-lactamases, IC50
T3 construct: gene blaNDM-1

[4] = biological target: T1, OXA-48; experiment: biochemical; set-up: inhibition of purified recombinant beta-lactamases, IC50; conditions: read-out: Class D OXA-48
[5] = biological target: T2, KPC-2; experiment: biochemical; set-up: inhibition of purified recombinant beta-lactamases, IC50; conditions: read-out: Class A KPC-2
[6] = biological target: T3, Class B1 NDM-1; experiment: biochemical; set-up: inhibition of purified recombinant beta-lactamases, IC50 from dose-response curves; read-out not stated in excerpts
Description: This selectivity was mostly, but not exclusively observed for the other β-lactamases, substantial inhibition of which was more sporadic than for KPC-2 (Table 2). The KPC-2 stereoselectivity for the benzoxaborole derivatives is interesting since the penicillin substrates of some of the β-lactamases have a (2S) C-3 carbon adjacent to their C-2 carboxylate. The difference in results for the (R)- and (S)-benzoxaboroles may reflect different distances between their carboxylate and electrophilic boron; the analogous carboxylate to β-lactam distance is proposed to be important with respect to antibacterial activity.[11]

T1 sequence (Q6XEC0 23-265 limits assumed): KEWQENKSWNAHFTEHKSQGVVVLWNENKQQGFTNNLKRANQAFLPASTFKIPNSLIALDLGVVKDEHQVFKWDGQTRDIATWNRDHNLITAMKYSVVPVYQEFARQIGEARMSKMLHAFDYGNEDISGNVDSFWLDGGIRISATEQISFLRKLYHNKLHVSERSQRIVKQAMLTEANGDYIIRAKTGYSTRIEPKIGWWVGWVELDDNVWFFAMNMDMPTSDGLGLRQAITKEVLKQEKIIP
T3 sequence (C7C422 whole entry, looked up): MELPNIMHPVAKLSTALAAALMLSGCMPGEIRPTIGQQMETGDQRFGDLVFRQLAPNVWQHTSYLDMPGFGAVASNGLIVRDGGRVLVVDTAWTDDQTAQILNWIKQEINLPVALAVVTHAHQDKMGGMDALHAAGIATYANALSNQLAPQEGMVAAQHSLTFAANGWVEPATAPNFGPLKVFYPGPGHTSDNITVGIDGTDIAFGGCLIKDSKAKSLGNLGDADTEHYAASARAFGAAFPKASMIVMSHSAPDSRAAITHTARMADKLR
T2 sequence (Q9F663 25-293 limits assumed): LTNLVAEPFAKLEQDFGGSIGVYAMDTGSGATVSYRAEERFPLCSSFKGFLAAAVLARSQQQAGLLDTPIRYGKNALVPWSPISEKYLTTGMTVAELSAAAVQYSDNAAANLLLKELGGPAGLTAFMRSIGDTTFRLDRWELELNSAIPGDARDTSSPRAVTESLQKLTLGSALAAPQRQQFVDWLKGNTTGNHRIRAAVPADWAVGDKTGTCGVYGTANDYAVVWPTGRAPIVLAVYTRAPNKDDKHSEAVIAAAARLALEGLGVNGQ

C=C(C(=O)O)[C@@H]1OB(O)c2ccccc21 [(R)-4a]
pIC50 [1]: 4.80 | pIC50 [2]: 5.51

C=C(C(=O)O)[C@@H]1OB(O)c2ccc(OC)cc21 [(R)-4c]
pIC50 [1]: 4.37 | pIC50 [2]: 5.12

C=C(C(=O)O)[C@@H]1OB(O)c2ccc(F)cc21 [(R)-4f]
pIC50 [1]: 4.99 | pIC50 [2]: 5.41

C=C(C(=O)O)[C@@H]1OB(O)c2cc(F)ccc21 [(R)-4j]
pIC50 [1]: 5.22 | pIC50 [2]: 6.01

C=C(C(=O)O)[C@@H]1OB(O)c2ccc(Oc3ccc(C)cc3)cc21 [(R)-4m]
pIC50 [3]: 3.45 | pIC50 [4]: 5.20 | pIC50 [5]: 5.45

C=C(C(=O)O)[C@@H]1OB(O)c2ccc(Oc3cccc(C)c3)cc21 [(R)-4n]
pIC50 [3]: 3.96 | pIC50 [4]: 5.39 | pIC50 [5]: 5.68

C=C(C(=O)O)[C@@H]1OB(O)c2ccc(Oc3ccc(C(F)(F)F)cc3)cc21 [(R)-4o]
pIC50 [3]: < 3.22 | pIC50 [4]: 5.11 | pIC50 [5]: 5.42

C=C(C(=O)O)[C@@H]1OB(O)c2ccc(OCc3ccccc3)cc21 [(R)-4p]
pIC50 [3]: < 3.52 | pIC50 [4]: 5.12 | pIC50 [5]: 5.93

C=C(C(=O)O)[C@@H]1OB(O)c2cc(Oc3ccc(OC)cc3)ccc21 [(R)-4q]
pIC50 [1]: 6.37 | pIC50 [2]: 7.15

C=C(C(=O)O)[C@@H]1OB(O)c2cc(Oc3ccc([N+](=O)[O-])cc3)ccc21 [(R)-4r]
pIC50 [3]: 3.51 | pIC50 [4]: 5.58 | pIC50 [5]: 6.92

C=C(C(=O)O)[C@@H]1OB(O)c2cc(Oc3ccc(Cl)cc3)ccc21 [(R)-4s]
pIC50 [3]: 3.83 | pIC50 [4]: 6.07 | pIC50 [5]: 6.57

C=C(C(=O)O)[C@@H]1OB(O)c2cc(OCc3ccccc3)ccc21 [(R)-4t]
pIC50 [3]: 3.42 | pIC50 [4]: 5.88 | pIC50 [5]: 6.26

C=C(C(=O)O)[C@H]1OB(O)c2ccccc21 [(S)-4a]
pIC50 [6]: < 3.22 | pIC50 [1]: 4.85 | pIC50 [2]: 6.32

C=C(C(=O)O)[C@H]1OB(O)c2ccc(OC)cc21 [(S)-4c]
pIC50 [1]: 4.47 | pIC50 [2]: 6.27

C=C(C(=O)O)[C@H]1OB(O)c2ccc(F)cc21 [(S)-4f]
pIC50 [1]: 4.83 | pIC50 [2]: 6.47

C=C(C(=O)O)[C@H]1OB(O)c2cc(F)ccc21 [(S)-4j]
pIC50 [1]: 4.92 | pIC50 [2]: 6.31

C=C(C(=O)O)[C@H]1OB(O)c2cc(Oc3ccc(OC)cc3)ccc21 [(S)-4q]
pIC50 [1]: 6.13 | pIC50 [2]: 8.00

NC(=O)[C@@H]1CC[C@@H]2CN1C(=O)N2OS(=O)(=O)O [Avibactam]
pIC50 [6]: < 3.22
